In general, viability refers to a read-out of living cells in per cent, often relative to untreated cells.

Viability data for 80 compounds are collected here from article PMC12040169 (PLOS Biology, 2025).

A short description of this data set: in vitro. The note with it: human, hela cells, % viability.

Consider `Cn1c(=O)c2c(nc(CN3CCC(Cc4ccccc4)CC3)n2CC(=O)c2ccccc2)n(C)c1=O` [CBK236846], for which the viability at 28.5 h, 10 µM was determined as 88%.

Take `Cn1c(=O)c2c(nc(CN3CCCCC3)n2CCN2CCOCC2)n(C)c1=O` [CBK269281]: the viability at 28.5 h, 10 µM worked out at 99.2%.

Turning to `Cc1cc(NC(=O)C(C)Oc2ccccc2)nc2c1c(=O)oc1ccccc12` (centres unmarked) [CBK291153], the viability at 28.5 h, 10 µM was 95.8%.

On to `COC(=O)COc1nccnc1-c1ccc(OC(F)(F)F)cc1` [CBK106849], for which the viability at 28.5 h, 10 µM amounted to 90.4%.

For `Cc1nc2c(c(=O)[nH]1)CCN(Cc1[nH]c3ccc(F)cc3c1C)C2` [CBK283996], the viability at 28.5 h, 10 µM worked out at 89.4%.

With `O=S(=O)(Nc1ccccc1N1CCCCC1)c1ccc(Cl)cc1` [CBK077063], the viability at 28.5 h, 10 µM was 100%.

Consider `CCc1cccc(CC)c1NC(=O)CC1SC(NCc2ccc(C)cc2)=NC1=O` (centres unmarked) [CBK059431], for which the viability at 28.5 h, 10 µM turned out to be 118%.

For the compound `CCn1nc(C)cc1C(=O)N1Cc2cnn(Cc3ccc(F)cc3)c2C1` [CBK306574], the viability at 28.5 h, 10 µM was determined as 96.7%.

On to `CNC(=O)c1ccc(NC(=O)N2CCCCC2c2ccnn2C)cc1` (centres unmarked) [CBK305521], for which the viability at 28.5 h, 10 µM turned out to be 112%.

In the case of `CN1C(=O)CC2(C1=O)C(=O)N(CCCn1c(=O)n(C)c3ccccc31)c1ccc(F)cc12` (centres unmarked) [CBK075441], the viability at 28.5 h, 10 µM is 110%.

Take `O=C(CSc1nc2ccccc2c(=O)[nH]1)Nc1ccc(Cl)c(C(=O)O)c1` [CBK268246]: the viability at 28.5 h, 10 µM amounted to 103%.

Turning to `CC(C)(CO)CNc1cncc(-c2ccc(O)cc2)n1` [CBK065386], the viability at 28.5 h, 10 µM was 113%.

For `Clc1ccc(CN2CCC(Oc3cncc(OCCN4CCOCC4)n3)C2)cc1` (centres unmarked) [CBK084480], the viability at 28.5 h, 10 µM came to 90.9%.

As to `O=C(CCn1c(-c2ccccc2)c(-c2ccccc2)c2ccccc21)N/N=C/c1cccc(O)c1` [CBK262348], the viability at 28.5 h, 10 µM amounted to 52.1%.

With `Cc1nc2nc(N)nn2c(C)c1CCC(=O)NCc1cccc(Cl)c1` [CBK304993], the viability at 28.5 h, 10 µM was 87.5%.

Consider `CCn1c(=O)n(CC(=O)NCc2ccc(F)cc2)c2cccnc21` [CBK283901], for which the viability at 28.5 h, 10 µM was 87.8%.

Turning to `CC(C)(C)c1cc(CN(Cc2cc(C(C)(C)C)c(O)c(C(C)(C)C)c2)C2CCCCC2)cc(C(C)(C)C)c1O` [CBK261996], the viability at 28.5 h, 10 µM worked out at 106%.

With `CCC(CN1CCOCC1)NC(=O)Cc1coc2cc(C)ccc12` (centres unmarked) [CBK282791], the viability at 28.5 h, 10 µM is 93.3%.

Consider `Cc1ncsc1CCOc1nccnc1N1CCCC1` [CBK115752], for which the viability at 28.5 h, 10 µM stood at 86.5%.

With `c1cncc(Nc2cccc(-c3ccco3)n2)c1` [CBK037742], the viability at 28.5 h, 10 µM was 100%.

Turning to `Cc1ccc(S(=O)(=O)NCC(Oc2ccc([N+](=O)[O-])cc2)c2ccccc2)cc1` (centres unmarked) [CBK262208], the viability at 28.5 h, 10 µM stood at 101%.

With `N#Cc1cccnc1N1CCC(NC(=O)c2cc(Cl)c[nH]c2=O)CC1` [CBK306586], the viability at 28.5 h, 10 µM stood at 104%.

With `O=C(NCCCN1CCCC1)Nc1ccccc1[N+](=O)[O-]` [CBK267959], the viability at 28.5 h, 10 µM was 97%.

On to `O=C(CSc1nnc(COc2ccccc2)n1-c1ccccc1)c1cccs1` [CBK265133], for which the viability at 28.5 h, 10 µM was 99.3%.

For `C=CCNC(=O)C1CCCN(c2nc3ccccc3n2C)C1` (centres unmarked) [CBK282872], the viability at 28.5 h, 10 µM amounted to 105%.

As for `O=[N+]([O-])c1ccc2c(c1)C(O)n1nc(-c3ccncc3)nc1S2` (centres unmarked) [CBK288533], the viability at 28.5 h, 10 µM worked out at 94.7%.

On to `Nc1c(C(=O)NCc2ccccc2)c2nc3ccccc3nc2n1CCO` [CBK267201], for which the viability at 28.5 h, 10 µM worked out at 108%.

With `CCn1cnc2c1CC/C(=N\O)C2` [CBK010044], the viability at 28.5 h, 10 µM amounted to 80.6%.

For the compound `CCS(=O)(=O)N1CCc2cc(-c3csc(-c4cnn(C)c4)n3)ccc21` [CBK305560], the viability at 28.5 h, 10 µM was found to be 93.7%.

For `Cc1[nH]c2ccc(C(=O)O)cc2c1CC(=O)O` [CBK267080], the viability at 28.5 h, 10 µM was 96.3%.

In the case of `COC(=O)Cn1c(=O)n(CCc2ccccc2)c(=O)c2c3c(sc21)CCCC3` [CBK267666], the viability at 28.5 h, 10 µM was 98.6%.

Turning to `Cc1nc(CCNC(=O)N(Cc2ccsc2)C2CC2)nc2c1CCCC2` [CBK307674], the viability at 28.5 h, 10 µM amounted to 88.5%.

On to `CCc1csc(C2CN3CCCC3CO2)n1` (centres unmarked) [CBK304793], for which the viability at 28.5 h, 10 µM was determined as 89.4%.

In the case of `CCCc1cc(O)nc(SCC(=O)Nc2cc3c(cc2C(C)=O)OCO3)n1` [CBK266144], the viability at 28.5 h, 10 µM stood at 92%.

Consider `COC(=O)CCNc1nc(-c2ccc(Br)cc2)nc2ccccc12` [CBK263628], for which the viability at 28.5 h, 10 µM was 97.9%.

Consider `O=c1cccc2n1CC1CC2CN(Cc2cccc(OCc3ccccc3)c2)C1` (centres unmarked) [CBK262426], for which the viability at 28.5 h, 10 µM came out at 102%.

Regarding `Cc1ccc(NS(=O)(=O)c2cccs2)cc1` [CBK045362], the viability at 28.5 h, 10 µM came out at 64%.

As for `O=C(O)C[C@@H]1CCN(C(=O)C2CCCCC2)C[C@@H]1CC1=NCCc2ccccc21` [CBK289158], the viability at 28.5 h, 10 µM amounted to 101%.

Regarding `CCOC(=O)N1CCC(NC(=O)N2CCN(CCc3ccccc3)CC2)CC1` [CBK158938], the viability at 28.5 h, 10 µM stood at 89.8%.

Turning to `c1ccc(CN2CCC(c3ccncc3)CC2)nc1` [CBK283505], the viability at 28.5 h, 10 µM came out at 101%.

Regarding `CCn1ncc(CN2CCCC(CCC(=O)N3CCN(C)CC3)C2)c1C` (centres unmarked) [CBK306951], the viability at 28.5 h, 10 µM was found to be 80.4%.

`Cc1cccc(OCC(=O)N2CCN(Cc3ccccn3)CC2)c1` [CBK134023G]: the viability at 28.5 h, 10 µM worked out at 92.3%.

With `COc1ccc(C2(NCc3c(C)nc4sccn34)CC2)cc1` [CBK282835], the viability at 28.5 h, 10 µM was 95.2%.

Consider `O=C(O)CCCC(=O)Nc1cc([N+](=O)[O-])ccc1O` [CBK265592], for which the viability at 28.5 h, 10 µM came to 102%.

In the case of `O=C1c2ccccc2C(=O)N1CCc1nc2ccccc2c(=O)n1-c1nc2ccccc2s1` [CBK266358], the viability at 28.5 h, 10 µM was 122%.

In the case of `Cc1cc(C(=O)N2CCC(n3c(=O)[nH]c4ccccc43)CC2)no1` [CBK149714], the viability at 28.5 h, 10 µM was found to be 103%.

Take `CS(=O)(=O)NCCCNc1ccc(C(F)(F)F)cc1[N+](=O)[O-]` [CBK263741]: the viability at 28.5 h, 10 µM was determined as 73.1%.

For `CCOc1ccc(-c2ccc(C#N)c(=S)[nH]2)cc1` [CBK288470], the viability at 28.5 h, 10 µM is 88.2%.

As to `Cc1cc(NC(=O)c2ccccc2)nc2c1c(=O)oc1ccccc12` [CBK291126], the viability at 28.5 h, 10 µM was 113%.

With `NS(=O)(=O)c1ccc(NCc2cc(Cl)ccc2OCc2ccc(F)cc2)cc1` [CBK268196], the viability at 28.5 h, 10 µM stood at 87.2%.

In the case of `Cn1c(COc2ccccc2Cl)nnc1SCC(=O)N1c2ccccc2Sc2ccccc21` [CBK266001], the viability at 28.5 h, 10 µM came out at 96.5%.

As for `Nc1[nH]ncc1-c1nnc(Nc2ccc3c(c2)OCO3)o1` [CBK288537], the viability at 28.5 h, 10 µM turned out to be 85.1%.

For `CCN(CC)CCCNC(=O)N1CCCC(CO)C1` (centres unmarked) [CBK156061], the viability at 28.5 h, 10 µM is 103%.

Regarding `CS(=O)(=O)NC1CCN(S(=O)(=O)c2cc(Cl)cc(Cl)c2)CC1` [CBK306082], the viability at 28.5 h, 10 µM stood at 84.3%.

Turning to `O=C(NCc1ccc2c(c1)OCO2)c1ccc(Oc2ccccc2)cc1` [CBK293982], the viability at 28.5 h, 10 µM is 91.4%.

Take `CCNC(=O)N1Cc2nc[nH]c2C[C@H]1C(=O)NCc1ccc(C#N)cc1` [CBK288975]: the viability at 28.5 h, 10 µM amounted to 96.2%.

For `COC(=O)c1sc(N2CCOCC2)c(C#N)c1N` [CBK006430], the viability at 28.5 h, 10 µM is 101%.

As to `Cc1cc(=O)c2ccccc2n1CC(=O)N1CCC2(CCOCC2)CC1` [CBK306869], the viability at 28.5 h, 10 µM was 94.7%.

Turning to `CCOC(=O)C1CCN(C(=O)CCn2ccc3ccncc32)CC1` [CBK284720], the viability at 28.5 h, 10 µM turned out to be 84.2%.

With `Cc1ccc(CN2CCCN(C(=O)CCn3cnc4c(cnn4C)c3=O)CC2)cc1` [CBK297793], the viability at 28.5 h, 10 µM came to 79.8%.

Turning to `CCN(CC)CCN1C(=O)C(O)=C(C(=O)c2ccc(C)o2)C1c1ccccn1` (centres unmarked) [CBK266584], the viability at 28.5 h, 10 µM came to 109%.

Take `CC1(C)OC(N2CCN(Cc3ccccc3)CC2)=Nc2ccccc21` [CBK023933C]: the viability at 28.5 h, 10 µM was determined as 90.9%.

In the case of `Cc1ccc(C(C)(C)C(=O)N2CCC(CC(=O)N(C)C)CC2)cc1` [CBK281973], the viability at 28.5 h, 10 µM was 99.8%.

Regarding `Cc1cc(C)c(S(=O)(=O)NC(CC(=O)O)c2ccccc2)cc1C` (centres unmarked) [CBK267081], the viability at 28.5 h, 10 µM is 86.8%.

Turning to `Cc1ccc(Nc2nccc(C3CCCN(Cc4ccc5[nH]ccc5c4)C3)n2)nc1` (centres unmarked) [CBK286122], the viability at 28.5 h, 10 µM is 88%.

For the compound `CCn1cnnc1SCC(=O)Nc1ccc(CN2CCOCC2)cc1` [CBK305072], the viability at 28.5 h, 10 µM was determined as 97.4%.

Take `Cn1c(=O)c2c(nc(CN3CCN(Cc4ccccc4)CC3)n2CCCc2ccccc2)n(C)c1=O` [CBK269582]: the viability at 28.5 h, 10 µM was 90.9%.

On to `CCNC(=O)N1CCC[C@@H](O)[C@H](NC(=O)c2ccc(OCc3c(C)noc3C)cc2)C1` [CBK289068], for which the viability at 28.5 h, 10 µM came to 84.2%.

`COC(=O)c1sccc1NS(=O)(=O)c1ccc(C(F)(F)F)cc1` [CBK200041]: the viability at 28.5 h, 10 µM was 95.5%.

As to `CCN(CC)C(=O)CCn1c(-c2cccnc2C)cc2cccnc21` [CBK282147], the viability at 28.5 h, 10 µM was found to be 91.5%.

On to `CSc1nc(SCC(=O)N(c2ccccc2)c2ccccc2)c2c3c(sc2n1)CCC3` [CBK267715], for which the viability at 28.5 h, 10 µM turned out to be 90.6%.

Regarding `CS(=O)(=O)Nc1ccc(N2CCNCC2)c2ccccc12` [CBK059355C], the viability at 28.5 h, 10 µM came out at 79.3%.

Turning to `COCCN(Cc1ccncc1)C(=O)c1cc(C(C)C)n2ncnc2n1` [CBK306983], the viability at 28.5 h, 10 µM came out at 97.4%.

`CCCCC(O)C[N+]1(C)CCC(c2ccccc2)CC1` (centres unmarked) [CBK006696I]: the viability at 28.5 h, 10 µM was 101%.

As for `COc1ccc(CCN2CCC(Oc3nccnc3NS(C)(=O)=O)CC2)cc1OC` [CBK084285], the viability at 28.5 h, 10 µM was found to be 103%.

`Cc1ccc(S(=O)(=O)Nc2ccccc2CNc2ccc(Br)cc2)cc1` [CBK264214]: the viability at 28.5 h, 10 µM is 94.5%.

For the compound `COc1ccccc1NC(=O)CSCc1nc2ccccc2[nH]1` [CBK268385], the viability at 28.5 h, 10 µM is 105%.

In the case of `CC(C)C(=O)Nc1cc2cccnc2c(-c2ccccc2)n1` [CBK081287], the viability at 28.5 h, 10 µM amounted to 92.2%.

`Cn1ccnc1C1(O)CC2CCC(C1)N2C(=O)Nc1ccc(F)cc1` (centres unmarked) [CBK284051]: the viability at 28.5 h, 10 µM amounted to 85.7%.

Consider `O=c1[nH]c(=O)n([C@H]2C[C@@H](O)[C@@H](CO)O2)cc1CCO` [CBK201239], for which the viability at 28.5 h, 10 µM is 99.6%.
